The record followed here is ChEMBL document CHEMBL4043169, “Discovery of potent and selective CDK8 inhibitors through FBDD approach” (Bioorg Med Chem Lett, 2017).

For one data set, the system named is AGS. Put plainly: Antiproliferative activity against human AGS cells after 72 hrs by MTT assay.
The next data set deals with CDK8/Cyclin C (Homo sapiens, UniProt P49336). Put plainly: Inhibition of recombinant full length His-tagged human CDK8/Cyclin C expressed in baculovirus expression system using Ulight-GS peptide as substrate after 30 mins in presence of ATP by TR-FRET assay.
For data set [1], the target named is Platelet-derived growth factor receptor alpha (Homo sapiens) (UniProt P16234). Briefly: Inhibition of PDGFRalpha (unknown origin) at 1 uM relative to control.
Data set [2] has as its target Vascular endothelial growth factor receptor 2 (Homo sapiens) (UniProt P35968). Briefly: Inhibition of KDR (unknown origin) at 1 uM relative to control.
The target of data set [3] is Fibroblast growth factor receptor 1 (Homo sapiens) (UniProt P11362). Put plainly: Inhibition of FGFR1 (unknown origin) at 1 uM relative to control.
The target in data set [4] is Tyrosine-protein kinase JAK2 (Homo sapiens) (UniProt O60674). Briefly: Inhibition of JAK2 (unknown origin) at 1 uM relative to control.
The next data set is filed under the species Homo sapiens. Put plainly: Inhibition of P70S6K (unknown origin) at 1 uM relative to control.
Data set [5] deals with Calcium/calmodulin-dependent protein kinase type IV (Homo sapiens) (UniProt Q16566). Put plainly: Inhibition of CAMK4 (unknown origin) at 1 uM relative to control.
The target in data set [6] is Angiopoietin-1 receptor (Homo sapiens) (UniProt Q02763). Put plainly: Inhibition of TIE2 (unknown origin) at 1 uM relative to control.
Data set [7] has as its target Mast/stem cell growth factor receptor Kit (Homo sapiens) (UniProt P10721). Put plainly: Inhibition of cKIT (unknown origin) at 1 uM relative to control.
The target of data set [8] is Mitogen-activated protein kinase 14 (Homo sapiens) (UniProt Q16539). Briefly: Inhibition of p38alpha (unknown origin) at 1 uM relative to control.
Data set [9] deals with Serine/threonine-protein kinase PAK 4 (Homo sapiens) (UniProt O96013). Briefly: Inhibition of PAK4 (unknown origin) at 1 uM relative to control.
In data set [10] the target is Serine/threonine-protein kinase Sgk1 (Homo sapiens) (UniProt O00141). Put plainly: Inhibition of SGK (unknown origin) at 1 uM relative to control.
Data set [11] concerns the target Tyrosine-protein kinase ABL1 (Homo sapiens) (UniProt P00519). Put plainly: Inhibition of ABL (unknown origin) at 1 uM relative to control.
Data set [12] has as its target Inhibitor of nuclear factor kappa-B kinase subunit beta (Homo sapiens) (UniProt O14920). Briefly: Inhibition of IKKbeta (unknown origin) at 1 uM relative to control.
Data set [13] has as its target Proto-oncogene tyrosine-protein kinase Src (Homo sapiens) (UniProt P12931). Put plainly: Inhibition of SRC (unknown origin) at 1 uM relative to control.
Data set [14] has as its target Tyrosine-protein kinase Lck (Homo sapiens) (UniProt P06239). Briefly: Inhibition of LCK (unknown origin) at 1 uM relative to control.
The target of data set [15] is Ephrin type-A receptor 1 (Homo sapiens) (UniProt P21709). Briefly: Inhibition of EPHA1 (unknown origin) at 1 uM relative to control.
Data set [16] deals with ALK tyrosine kinase receptor (Homo sapiens) (UniProt Q9UM73). Briefly: Inhibition of ALK (unknown origin) at 1 uM relative to control.
The target of data set [17] is Epidermal growth factor receptor (Homo sapiens) (UniProt P00533). Briefly: Inhibition of EGFR (unknown origin) at 1 uM relative to control.
Data set [18] deals with RAC-alpha serine/threonine-protein kinase (Homo sapiens) (UniProt P31749). Briefly: Inhibition of AKT1 (unknown origin) at 1 uM relative to control.
The target in data set [19] is Insulin-like growth factor 1 receptor (Homo sapiens) (UniProt P08069). Briefly: Inhibition of IGF1R (unknown origin) at 1 uM relative to control.
The target in data set [20] is Ribosomal protein S6 kinase alpha-1 (Homo sapiens) (UniProt Q15418). Briefly: Inhibition of RSK1 (unknown origin) at 1 uM relative to control.
Data set [21] addresses Ribosomal protein S6 kinase alpha-2 (Homo sapiens) (UniProt Q15349). Put plainly: Inhibition of RSK2 (unknown origin) at 1 uM relative to control.
The target of data set [22] is Ribosomal protein S6 kinase alpha-5 (Homo sapiens) (UniProt O75582). Briefly: Inhibition of MSK1 (unknown origin) at 1 uM relative to control.
For data set [23], the target named is Ribosomal protein S6 kinase alpha-4 (Homo sapiens) (UniProt O75676). Put plainly: Inhibition of MSK2 (unknown origin) at 1 uM relative to control.
The target of data set [24] is Serine/threonine-protein kinase pim-1 (Homo sapiens) (UniProt P11309). Briefly: Inhibition of PIM1 (unknown origin) at 1 uM relative to control.
In data set [25] the target is Protein kinase C alpha type (Homo sapiens) (UniProt P17252). Briefly: Inhibition of PKCalpha (unknown origin) at 1 uM relative to control.
Data set [26] addresses Rho-associated protein kinase 1 (Homo sapiens) (UniProt Q13464). Briefly: Inhibition of ROCK1 (unknown origin) at 1 uM relative to control.
Data set [27] deals with Glycogen synthase kinase-3 beta (Homo sapiens) (UniProt P49841). Put plainly: Inhibition of Gsk3beta (unknown origin) at 1 uM relative to control.
The target of data set [28] is Mitogen-activated protein kinase 9 (Homo sapiens) (UniProt P45984). Put plainly: Inhibition of JNK2 (unknown origin) at 1 uM relative to control.
Data set [29] has as its target Serine/threonine-protein kinase MARK1 (Homo sapiens) (UniProt Q9P0L2). Briefly: Inhibition of MARK1 (unknown origin) at 1 uM relative to control.
For data set [30], the target named is Serine/threonine-protein kinase 4 (Homo sapiens) (UniProt Q13043). Put plainly: Inhibition of MST1 (unknown origin) at 1 uM relative to control.
Data set [31] concerns the target Casein kinase I isoform delta (Homo sapiens) (UniProt P48730). Briefly: Inhibition of CK1delta (unknown origin) at 1 uM relative to control.
Data set [32] has as its target Aurora kinase B (Homo sapiens) (UniProt Q96GD4). Put plainly: Inhibition of AurB (unknown origin) at 1 uM relative to control.
In data set [33] the target is Aurora kinase A (Homo sapiens) (UniProt O14965). Briefly: Inhibition of AurA (unknown origin) at 1 uM relative to control.
Data set [34] addresses 5'-AMP-activated protein kinase catalytic subunit alpha-1 (Homo sapiens) (UniProt Q13131). Briefly: Inhibition of AMPKa1 (unknown origin) at 1 uM relative to control.
Data set [35] has as its target Receptor-type tyrosine-protein kinase FLT3 (Homo sapiens) (UniProt P36888). Put plainly: Inhibition of FLT3 (unknown origin) at 1 uM relative to control.
Data set [36] deals with Hepatocyte growth factor receptor (Homo sapiens) (UniProt P08581). Put plainly: Inhibition of cMET (unknown origin) at 1 uM relative to control.
The target in data set [37] is Interleukin-1 receptor-associated kinase 1 (Homo sapiens) (UniProt P51617). Briefly: Inhibition of IRAK1 (unknown origin) at 1 uM relative to control.
Data set [38] addresses Mitogen-activated protein kinase 3 (Homo sapiens) (UniProt P27361). Briefly: Inhibition of ERK1 (unknown origin) at 1 uM relative to control.
The target of data set [39] is Receptor tyrosine-protein kinase erbB-2 (Homo sapiens) (UniProt P04626). Briefly: Inhibition of HER2 (unknown origin) at 1 uM relative to control.
The target in data set [40] is Cyclin-dependent kinase 2 (Homo sapiens) (UniProt P24941). Put plainly: Inhibition of CDK2 (unknown origin) at 1 uM relative to control.
Data set [41] has as its target Cyclin-dependent kinase 6 (Homo sapiens) (UniProt Q00534). Briefly: Inhibition of CDK6 (unknown origin) at 1 uM relative to control.
In data set [42] the target is 3-phosphoinositide-dependent protein kinase 1 (Homo sapiens) (UniProt O15530). Put plainly: Inhibition of PDK1 (unknown origin) at 1 uM relative to control.
The nature of data set [43]: Clearance in mouse at 5 mg/kg, iv. Particulars: in vivo. The data set is classed as ADME, organism-based.
Data set [44] in a line: Cmax in mouse at 5 mg/kg, iv. Also on record: dose 5 mg/kg, route intravenous. The data set is classed as ADME, organism-based. Particulars: in vivo.
Data set [45] is described as follows: Cmax in mouse at 25 mg/kg, po. More on the design: dose 25 mg/kg, route oral. The data set is classed as ADME, organism-based. Particulars: in vivo.
A short description of data set [46]: Tmax in mouse at 25 mg/kg, po. Particulars: in vivo. The data set is classed as ADME, organism-based.
Data set [47] is described as follows: Half life in mouse at 5 mg/kg, iv. Particulars: in vivo. The data set is classed as ADME, organism-based.
Data set [48] can be described thus: Half life in mouse at 25 mg/kg, po. Particulars: in vivo. The data set is classed as ADME, organism-based.
Data set [49] is described as follows: Volume of distribution at steady state in mouse at 5 mg/kg, iv. The data set is classed as ADME, organism-based. To be noted: in vivo, read-out: Vdss.
Data set [50] is described as follows: Oral bioavailability in mouse at 25 mg/kg. The data set is classed as ADME, organism-based. To be noted: in vivo.

Chain of CDK8/Cyclin C (P49336 whole entry): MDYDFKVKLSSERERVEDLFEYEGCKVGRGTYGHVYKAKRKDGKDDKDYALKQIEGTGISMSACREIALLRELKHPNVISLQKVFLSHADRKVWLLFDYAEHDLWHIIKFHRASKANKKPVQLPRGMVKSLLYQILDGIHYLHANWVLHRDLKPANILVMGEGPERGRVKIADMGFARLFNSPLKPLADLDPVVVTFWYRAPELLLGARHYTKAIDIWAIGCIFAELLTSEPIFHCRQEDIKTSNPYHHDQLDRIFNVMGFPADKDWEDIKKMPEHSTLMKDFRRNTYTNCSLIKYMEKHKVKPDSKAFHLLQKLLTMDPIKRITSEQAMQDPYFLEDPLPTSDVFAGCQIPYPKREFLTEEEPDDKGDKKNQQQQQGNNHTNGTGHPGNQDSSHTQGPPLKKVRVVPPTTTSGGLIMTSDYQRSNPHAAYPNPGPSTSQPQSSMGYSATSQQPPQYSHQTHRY
Chain of CDK8/Cyclin C (P24863 whole entry, further chain): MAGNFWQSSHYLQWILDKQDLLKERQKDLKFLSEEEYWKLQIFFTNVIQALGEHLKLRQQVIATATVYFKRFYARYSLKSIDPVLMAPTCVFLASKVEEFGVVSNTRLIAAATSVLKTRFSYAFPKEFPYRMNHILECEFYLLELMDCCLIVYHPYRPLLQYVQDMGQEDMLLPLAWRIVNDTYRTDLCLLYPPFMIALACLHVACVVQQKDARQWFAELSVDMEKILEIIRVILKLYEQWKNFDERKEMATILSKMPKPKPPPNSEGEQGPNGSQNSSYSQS
Chain of Receptor-type tyrosine-protein kinase FLT3 (Homo sapiens) (P36888 whole entry): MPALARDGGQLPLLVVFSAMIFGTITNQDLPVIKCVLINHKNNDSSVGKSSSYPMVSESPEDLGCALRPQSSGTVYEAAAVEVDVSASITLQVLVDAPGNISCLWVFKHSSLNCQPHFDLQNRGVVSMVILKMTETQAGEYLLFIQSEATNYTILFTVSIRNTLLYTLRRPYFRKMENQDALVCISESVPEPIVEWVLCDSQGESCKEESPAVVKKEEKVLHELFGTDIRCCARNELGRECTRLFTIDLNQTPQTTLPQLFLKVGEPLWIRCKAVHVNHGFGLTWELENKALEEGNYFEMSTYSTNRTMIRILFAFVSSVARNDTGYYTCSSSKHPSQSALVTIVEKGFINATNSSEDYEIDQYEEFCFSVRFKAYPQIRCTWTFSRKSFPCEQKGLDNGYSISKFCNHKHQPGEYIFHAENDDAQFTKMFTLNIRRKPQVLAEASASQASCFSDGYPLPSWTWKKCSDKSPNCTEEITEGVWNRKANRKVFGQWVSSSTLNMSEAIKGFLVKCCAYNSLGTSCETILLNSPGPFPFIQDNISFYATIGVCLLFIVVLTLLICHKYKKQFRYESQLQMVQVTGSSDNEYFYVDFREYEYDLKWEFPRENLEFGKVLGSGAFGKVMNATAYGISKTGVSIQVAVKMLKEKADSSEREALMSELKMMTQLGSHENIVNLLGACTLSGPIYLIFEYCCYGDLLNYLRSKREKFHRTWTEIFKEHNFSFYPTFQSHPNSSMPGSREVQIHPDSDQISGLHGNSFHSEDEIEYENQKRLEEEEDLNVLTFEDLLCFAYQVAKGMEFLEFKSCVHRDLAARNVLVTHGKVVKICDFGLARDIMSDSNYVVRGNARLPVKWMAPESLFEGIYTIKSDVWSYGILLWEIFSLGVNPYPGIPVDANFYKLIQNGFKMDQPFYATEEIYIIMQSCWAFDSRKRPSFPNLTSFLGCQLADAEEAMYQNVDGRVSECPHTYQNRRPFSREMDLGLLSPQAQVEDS
Chain of 5'-AMP-activated protein kinase catalytic subunit alpha-1 (Homo sapiens) (Q13131 whole entry, looked up): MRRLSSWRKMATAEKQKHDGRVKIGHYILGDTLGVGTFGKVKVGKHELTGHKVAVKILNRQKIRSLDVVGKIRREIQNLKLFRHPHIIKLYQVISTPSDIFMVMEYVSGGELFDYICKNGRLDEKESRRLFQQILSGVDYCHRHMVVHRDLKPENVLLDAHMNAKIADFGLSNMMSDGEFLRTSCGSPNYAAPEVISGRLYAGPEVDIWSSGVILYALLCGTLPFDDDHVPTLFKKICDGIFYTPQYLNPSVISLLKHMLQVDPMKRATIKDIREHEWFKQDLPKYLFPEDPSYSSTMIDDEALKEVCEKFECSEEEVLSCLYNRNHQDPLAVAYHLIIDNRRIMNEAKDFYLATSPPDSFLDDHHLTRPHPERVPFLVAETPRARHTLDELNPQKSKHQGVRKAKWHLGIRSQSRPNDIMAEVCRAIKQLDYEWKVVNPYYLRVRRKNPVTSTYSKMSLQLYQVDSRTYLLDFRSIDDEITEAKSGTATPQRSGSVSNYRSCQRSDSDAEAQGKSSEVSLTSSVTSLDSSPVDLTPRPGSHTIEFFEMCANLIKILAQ
Chain of Serine/threonine-protein kinase pim-1 (Homo sapiens) (P11309 whole entry, looked up): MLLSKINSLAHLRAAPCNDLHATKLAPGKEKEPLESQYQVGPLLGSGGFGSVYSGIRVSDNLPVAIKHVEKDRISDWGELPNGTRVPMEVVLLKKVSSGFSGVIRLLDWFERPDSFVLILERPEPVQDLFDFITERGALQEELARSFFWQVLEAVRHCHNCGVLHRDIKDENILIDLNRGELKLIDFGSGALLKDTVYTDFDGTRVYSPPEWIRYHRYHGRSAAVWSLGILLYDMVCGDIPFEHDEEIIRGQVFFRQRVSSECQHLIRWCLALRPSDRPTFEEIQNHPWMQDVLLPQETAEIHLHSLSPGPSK
Chain of Angiopoietin-1 receptor (Homo sapiens) (Q02763 whole entry): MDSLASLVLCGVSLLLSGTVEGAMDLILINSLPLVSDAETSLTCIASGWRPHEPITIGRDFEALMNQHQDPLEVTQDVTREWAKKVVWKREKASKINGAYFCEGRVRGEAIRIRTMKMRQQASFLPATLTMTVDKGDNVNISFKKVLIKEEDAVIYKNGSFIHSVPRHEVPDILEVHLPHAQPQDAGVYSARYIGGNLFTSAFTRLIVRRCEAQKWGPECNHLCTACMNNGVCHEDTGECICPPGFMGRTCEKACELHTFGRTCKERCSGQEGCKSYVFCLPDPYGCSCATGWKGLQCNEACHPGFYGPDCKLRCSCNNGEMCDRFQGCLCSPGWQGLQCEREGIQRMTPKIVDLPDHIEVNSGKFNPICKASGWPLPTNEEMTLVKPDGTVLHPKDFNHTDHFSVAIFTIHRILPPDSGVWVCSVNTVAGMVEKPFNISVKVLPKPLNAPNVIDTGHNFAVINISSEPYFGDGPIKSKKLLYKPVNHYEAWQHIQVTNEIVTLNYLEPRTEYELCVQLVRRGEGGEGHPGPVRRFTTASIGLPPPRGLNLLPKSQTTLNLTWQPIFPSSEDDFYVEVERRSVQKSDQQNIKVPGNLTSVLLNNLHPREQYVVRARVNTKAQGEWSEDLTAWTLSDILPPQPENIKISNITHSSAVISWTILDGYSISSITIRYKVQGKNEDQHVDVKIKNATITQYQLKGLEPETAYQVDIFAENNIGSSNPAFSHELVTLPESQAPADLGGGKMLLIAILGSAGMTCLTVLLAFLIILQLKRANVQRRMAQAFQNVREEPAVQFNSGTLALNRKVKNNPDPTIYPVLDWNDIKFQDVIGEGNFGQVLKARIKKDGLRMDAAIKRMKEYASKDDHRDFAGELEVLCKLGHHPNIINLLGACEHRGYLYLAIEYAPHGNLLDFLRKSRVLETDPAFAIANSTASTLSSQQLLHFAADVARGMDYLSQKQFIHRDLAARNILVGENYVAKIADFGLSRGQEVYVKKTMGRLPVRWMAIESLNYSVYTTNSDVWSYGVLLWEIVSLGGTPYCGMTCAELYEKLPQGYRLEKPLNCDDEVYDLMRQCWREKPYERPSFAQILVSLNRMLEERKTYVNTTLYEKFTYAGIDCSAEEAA
Chain of Mitogen-activated protein kinase 14 (Homo sapiens) (Q16539 whole entry): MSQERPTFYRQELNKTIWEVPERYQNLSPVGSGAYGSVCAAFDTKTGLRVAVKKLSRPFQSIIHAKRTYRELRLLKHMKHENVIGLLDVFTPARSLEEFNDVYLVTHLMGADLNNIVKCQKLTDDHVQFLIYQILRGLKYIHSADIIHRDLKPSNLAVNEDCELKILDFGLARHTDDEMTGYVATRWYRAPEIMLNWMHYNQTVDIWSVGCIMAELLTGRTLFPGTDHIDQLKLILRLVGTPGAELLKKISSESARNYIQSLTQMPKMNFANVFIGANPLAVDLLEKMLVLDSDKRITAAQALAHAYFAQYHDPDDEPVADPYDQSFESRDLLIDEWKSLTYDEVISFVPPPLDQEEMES
Chain of Casein kinase I isoform delta (Homo sapiens) (P48730 whole entry, looked up, canonical isoform): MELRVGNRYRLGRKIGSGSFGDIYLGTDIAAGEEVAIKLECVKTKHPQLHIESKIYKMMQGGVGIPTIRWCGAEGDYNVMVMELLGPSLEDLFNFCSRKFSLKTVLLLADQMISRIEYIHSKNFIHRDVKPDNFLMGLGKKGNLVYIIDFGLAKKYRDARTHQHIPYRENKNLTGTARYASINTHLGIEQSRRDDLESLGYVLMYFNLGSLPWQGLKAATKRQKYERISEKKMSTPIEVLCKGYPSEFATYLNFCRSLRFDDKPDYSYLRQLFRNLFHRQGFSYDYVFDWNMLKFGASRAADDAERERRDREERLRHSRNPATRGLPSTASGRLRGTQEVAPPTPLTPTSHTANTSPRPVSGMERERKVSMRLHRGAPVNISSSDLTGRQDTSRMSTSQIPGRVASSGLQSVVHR
Chain of Cyclin-dependent kinase 6 (Homo sapiens) (Q00534 whole entry): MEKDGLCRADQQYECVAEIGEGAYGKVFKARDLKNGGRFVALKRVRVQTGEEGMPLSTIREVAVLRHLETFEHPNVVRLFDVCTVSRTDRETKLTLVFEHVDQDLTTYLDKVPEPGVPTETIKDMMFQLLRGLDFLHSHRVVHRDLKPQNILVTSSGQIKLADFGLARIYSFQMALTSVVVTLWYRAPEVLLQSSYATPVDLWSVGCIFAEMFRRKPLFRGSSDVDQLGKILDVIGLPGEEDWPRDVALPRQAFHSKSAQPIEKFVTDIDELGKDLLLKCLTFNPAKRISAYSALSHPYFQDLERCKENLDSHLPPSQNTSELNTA

The IC50 is the midpoint of a concentration-inhibition curve. On to `CCc1c(-c2ccncc2)c[nH]c1C(N)=O`, for which the figures for the IC50 in the data set on AGS and on CDK8/Cyclin C were 1120 nM and 13 nM, respectively.

`NC(=O)c1cc(-c2ccncc2Cl)c[nH]1`: on CDK8/Cyclin C, the half-inhibitory concentration (IC50) is 19 nM.

`NC(=O)c1cc(-c2ccncc2Br)c[nH]1`: the IC50 at CDK8/Cyclin C was 37 nM.

Take `Cc1[nH]c(C(N)=O)cc1-c1ccncc1`: the IC50 on CDK8/Cyclin C is 240 nM.

With `CNC(=O)c1cc(-c2ccncc2)c[nH]1`, the IC50 at CDK8/Cyclin C turned out to be 410 nM.

`Cc1cc(-c2c[nH]c(C(N)=O)c2C)ccn1`: on CDK8/Cyclin C, the IC50 came out at 19 nM.

As to `NC(=O)c1cc(-c2ccnc(Cl)c2)c[nH]1`, on CDK8/Cyclin C, the IC50 amounted to 350 nM.

`Cc1cnccc1-c1c[nH]c(C(N)=O)c1C`: the IC50 with AGS was determined as 1170 nM; at CDK8/Cyclin C it was 10 nM.

For `NC(=O)c1[nH]cc(-c2ccncc2)c1Cl`, the IC50 in the data set with AGS stood at 370 nM; on CDK8/Cyclin C, 5 nM.

In general, inhibition refers to the percentage by which the read-out fell short of the control. Regarding `Cc1c(-c2ccncc2)c[nH]c1C(N)=O`, the IC50 worked out at 800 nM in the data set on AGS and 8 nM at CDK8/Cyclin C. Also, the inhibition (in data set [1]; in data set [2]; in data set [3]; in [4]; in the data set listed under Homo sapiens; in data set [5]) was less than 20% throughout. Further, the inhibition in data set [6], in data set [7], in [8], in data set [9], in data set [10] and in data set [11] was less than 20% throughout. Besides, the inhibition in data set [12], in data set [13], in data set [14], in data set [15], in [16] and in data set [17] was less than 20% each time. Further, the inhibition in data set [18], in data set [19], in [20], in [21], in data set [22] and in [23] was less than 20% in each case. The inhibition in data set [24], in data set [25], in [26], in data set [27], in [28] and in data set [29] was less than 20% in each case. For the same compound, the inhibition in [30], in [31], in data set [32], in data set [33], in [34] and in [35] was less than 20% in each case. Besides, the inhibition in data set [36], in data set [37], in data set [38], in data set [39], in data set [40] and in data set [41] was less than 20% in each case. In addition, the inhibition in [42] was less than 20%.

A word on the clearance: it is a measure of how efficiently the substance is removed, as volume per time. What is called Cmax is the peak of the concentration-time curve. For orientation: Tmax means the time at which the peak concentration occurs. Broadly, the half-life is the time needed for the level to fall by half in the phase considered. High values mean slow decline, low ones rapid decline. What is called bioavailability is dose-corrected exposure relative to a reference, in per cent. Lower therefore signals poor availability. Take `NC(=O)c1[nH]cc(-c2ccncc2)c1C(F)(F)F`: the IC50 stood at 270 nM with AGS and 3 nM at CDK8/Cyclin C. The compound further came in with a clearance in [43] of 8.87 mL/min/kg. For the same compound, the figures for the Cmax in data set [44] and in [45] were 9940 ng/mL and 12700 ng/mL, respectively. For the same compound, in [46], the time of peak concentration (Tmax) worked out at 15 min. Further, the half-life is 50.4 min in data set [47] and 475 min in data set [48]. Also, in data set [49], the Vd was 0.49 L/kg. The compound also gave a bioavailability in data set [50] of 57.5%.

With `Cn1cc(-c2ccncc2)cc1C(N)=O`, the IC50 on CDK8/Cyclin C stood at 4950 nM.

With `Cc1cnccc1-c1c[nH]c(C(N)=O)c1`, the IC50 at CDK8/Cyclin C was 87 nM.

As for `Cc1cc(-c2c[nH]c(C(N)=O)c2)ccn1`, on CDK8/Cyclin C, the IC50 stood at 480 nM.

`NC(=O)c1cc(-c2ccncc2)c(Cl)[nH]1`: on CDK8/Cyclin C, the IC50 was 160 nM.

Take `CCc1cnccc1-c1c[nH]c(C#N)c1`: the IC50 at CDK8/Cyclin C was found to be 4630 nM.

As to `N#Cc1cc(-c2ccncc2)c[nH]1`, at CDK8/Cyclin C, the IC50 stood at 280 nM.

For `NC(=O)c1cc(-c2ccncc2)c[nH]1`, the IC50 at CDK8/Cyclin C is 170 nM.

On to `NC(=O)c1cc(-c2ccncc2)cn1Cc1ccccc1`, for which the concentration for half-maximal inhibition (IC50) at CDK8/Cyclin C came out at 170 nM.
